According to article PMC8591741 (ACS Medicinal Chemistry Letters, 2021):
Entries after “also recorded” stand apart in the source; their conditions may differ.

What was measured:
[1] = test system: HCV gt1a replicon; test: HCV replicon assay, gt1a; type: cell-based, hepatitis C virus
[2] = test system: HCV gt1b replicon; test: HCV replicon assay, gt1b; type: cell-based, hepatitis C virus; settings: for potency against gt1b compared with daclatasvir (1), in words: vs 1

COC(=O)N[C@H]1CCC[C@H]2CC[C@@H](c3ncc(-c4ccc(-c5ccc(-c6cnc([C@@H]7CCCN7C(=O)[C@@H](NC(=O)OC)C(C)C)[nH]6)cc5)cc4)[nH]3)N2C1=O [Compound 2]
potency decrease against gt1a compared with daclatasvir (1) ([1]; vs 1): ~221 fold
potency against gt1b compared with daclatasvir (1), in words [2]: decreased slightly

COC(=O)N[C@H](C(=O)N1CC2(C[C@H]1c1ncc(-c3ccc(-c4ccc(-c5cnc([C@@H]6CC[C@H]7CCC[C@H](N(C)C)C(=O)N76)[nH]5)cc4)cc3)[nH]1)OCCO2)C(C)C [Compound 13]
less potent than 5 against gt1a ([1]; vs 5): 16 fold

COC(=O)N[C@H]1CCC[C@@H]2CC[C@@H](c3ncc(-c4ccc(-c5ccc(-c6cnc([C@@H]7CCCN7C(=O)[C@@H](NC(=O)OC)C(C)C)[nH]6)cc5)cc4)[nH]3)N2C1=O [Compound 5]
times less potent against gt1a than 1 ([1]; vs daclatasvir (1)): ~6
potency against gt1b compared with daclatasvir (1), in words [2]: nearly equipotent; also recorded: essentially equipotent

COC(=O)N[C@H](C(=O)N1CCC[C@H]1c1ncc(-c2ccc(-c3ccc(-c4cnc([C@@H]5CC[C@H]6CCC[C@@H](NC(=O)OC)C(=O)N65)[nH]4)cc3)cc2)[nH]1)C(C)C [Compound 4]
gt1a potency regained compared with 2 ([1]; vs 2): ~27 fold
gt1b potency regained compared with 2 ([2]; vs 2): ~2 fold
